Results from PMC8213057, “Targeting ALK2: An Open Science Approach to Developing Therapeutics for the Treatment of Diffuse Intrinsic Pontine Glioma” (Journal of Medicinal Chemistry, 2020).
“And” between values parts separate entries of the source, which are not always exact repeats. Equal entries are not always repeated.

Assays:
[1] = human liver microsomal stability assay; format: in vitro ADME; conditions: pH 7.4, human liver microsomes, 60 min, 37 °C, read-out: HLM % Remaining at 1h
[2] = mouse liver microsomal stability assay; format: in vitro ADME; conditions: male, 60 min, 37 °C, read-out: MLM % Remaining at 1h
ALK2/ACVR1 = molecular target: T1, ALK2/ACVR1 (Homo sapiens, UniProt Q04771); format: biochemical; conditions: for Fold Selectivity (ALK5/ALK2): biochemical ALK5 IC50 / ALK2 IC50; for fold decrease in inhibitory activity against ALK2: biochemical, relative to M4K2149
T1 construct: purchased Reaction Biology Corporation
T1 sequence (Q04771 21-509): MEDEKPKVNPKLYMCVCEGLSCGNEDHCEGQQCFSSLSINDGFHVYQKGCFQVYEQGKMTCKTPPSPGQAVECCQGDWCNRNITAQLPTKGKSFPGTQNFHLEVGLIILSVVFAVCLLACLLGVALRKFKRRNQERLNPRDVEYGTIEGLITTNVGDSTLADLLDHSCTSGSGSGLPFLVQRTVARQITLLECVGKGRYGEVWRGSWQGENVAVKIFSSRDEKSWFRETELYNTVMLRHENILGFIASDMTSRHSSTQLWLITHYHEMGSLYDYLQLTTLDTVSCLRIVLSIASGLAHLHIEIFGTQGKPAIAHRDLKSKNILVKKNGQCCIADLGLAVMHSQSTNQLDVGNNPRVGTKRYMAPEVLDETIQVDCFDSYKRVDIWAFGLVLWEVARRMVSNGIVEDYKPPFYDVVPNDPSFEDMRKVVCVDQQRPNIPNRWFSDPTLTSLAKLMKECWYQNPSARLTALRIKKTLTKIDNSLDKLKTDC

[3] = Caco-2 permeability assay; conditions: human
ALK2 = molecular target: T2, ALK2 (Homo sapiens, UniProt Q04771); test: NanoBRET target engagement assay in HEK293 cells; format: cell-based; conditions: DLA ALK5 IC50 / NanoBRET ALK2 IC50
T2 construct: host or cells: HEK-293
T2 sequence (Q04771 21-509): T1 sequence (Q04771 21-509)

in vitro = conditions: human, Caco-2, pH 7.4
Caco-2 cells [4] = test: Caco-2 permeability assay; conditions: 5 μM
in vivo = conditions: female, CB17 SCID, mouse, po, 10 mg/kg
Caco-2 cells [5] = test system: Caco-2 cells; design: method as in earlier work; conditions: unpublished results ref 21; cited from earlier work
hERG potassium channel = molecular target: T3, hERG potassium channel (Homo sapiens, UniProt Q12809); test: hERG patch-clamp assay in HEK293 cells; conditions: HEK293 cell-based patch-clamp
T3 construct: host or cells: HEK293

[6] = CD-1, pH 7.4, mouse liver microsomes
[7] = CD-1, mouse, microsomes, pH 7.4, mouse liver microsomes

T3 sequence (Q12809 whole entry): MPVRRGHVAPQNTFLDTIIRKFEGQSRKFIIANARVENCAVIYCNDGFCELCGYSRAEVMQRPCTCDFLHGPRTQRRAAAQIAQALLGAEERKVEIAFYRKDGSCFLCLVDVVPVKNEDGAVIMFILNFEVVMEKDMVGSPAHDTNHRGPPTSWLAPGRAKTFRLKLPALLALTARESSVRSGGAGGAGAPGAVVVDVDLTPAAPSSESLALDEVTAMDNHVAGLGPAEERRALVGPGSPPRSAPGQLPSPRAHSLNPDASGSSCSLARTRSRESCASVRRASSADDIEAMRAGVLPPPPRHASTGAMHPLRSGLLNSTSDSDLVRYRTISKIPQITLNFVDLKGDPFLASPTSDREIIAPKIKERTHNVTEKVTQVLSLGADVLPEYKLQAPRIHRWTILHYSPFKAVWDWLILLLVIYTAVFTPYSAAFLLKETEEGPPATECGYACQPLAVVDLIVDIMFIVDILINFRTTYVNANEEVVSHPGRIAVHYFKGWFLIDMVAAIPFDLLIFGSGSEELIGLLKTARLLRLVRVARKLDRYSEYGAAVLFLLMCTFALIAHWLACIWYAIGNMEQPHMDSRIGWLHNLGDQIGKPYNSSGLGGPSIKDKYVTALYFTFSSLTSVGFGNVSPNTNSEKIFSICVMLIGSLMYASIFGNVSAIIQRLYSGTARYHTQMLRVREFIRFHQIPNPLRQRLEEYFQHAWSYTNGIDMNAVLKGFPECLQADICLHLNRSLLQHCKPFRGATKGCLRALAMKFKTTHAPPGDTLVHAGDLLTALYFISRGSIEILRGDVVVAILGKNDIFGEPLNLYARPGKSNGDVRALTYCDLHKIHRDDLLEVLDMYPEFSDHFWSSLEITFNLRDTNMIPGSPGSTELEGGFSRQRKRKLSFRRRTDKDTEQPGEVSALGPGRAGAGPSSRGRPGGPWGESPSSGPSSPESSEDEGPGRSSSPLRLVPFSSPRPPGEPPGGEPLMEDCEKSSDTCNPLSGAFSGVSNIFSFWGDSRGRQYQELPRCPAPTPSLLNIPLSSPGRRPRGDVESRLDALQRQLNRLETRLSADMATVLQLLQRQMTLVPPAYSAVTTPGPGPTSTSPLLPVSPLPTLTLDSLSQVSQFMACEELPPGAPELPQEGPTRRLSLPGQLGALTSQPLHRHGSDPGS

Compound: COc1cc(-c2cncc(-c3ccc(N4CCNCC4)cc3)c2C)cc(OC)c1C(N)=O [Compound 8c, 2,6-Dimethoxy-4-(4-methyl-5-(4-(piperazin-1-yl)phenyl)pyridin-3-yl)benzamide]
- remaining at 1 h, 1 μM ([1]; pooled liver microsomes): 88.8%
- remaining at 1 h, 1 μM [2, 6]: 99.8%
- Fold Selectivity (ALK5/ALK2) (ALK2/ACVR1): 9
- Papp A→B at 120 min, 5 μM ([3]; Caco-2, pH 7.4): 0.1 ×10⁻⁶ cm/s
- Papp B→A at 120 min, 5 μM ([3]; Caco-2, pH 7.4): 6.1 ×10⁻⁶ cm/s

Compound: Cc1c(-c2ccc(N3CCNCC3)cc2)cncc1-c1ccc(C(N)=O)c(F)c1 [Compound 20d, 2-Fluoro-4-(4-methyl-5-(4-(piperazin-1-yl)phenyl)pyridin-3-yl)benzamide]
- IC50 (ALK5): > 5 µM
- Fold Selectivity (ALK5/ALK2) (ALK2/ACVR1): >19
- Cell-based Fold Selectivity (ALK2): >4
- IC50 (DLA ALK5): > 5 µM

Compound: COCc1cc(-c2cncc(-c3ccc(N4CCNCC4)cc3)c2C)ccc1C(N)=O [Compound 20c, 2-(Methoxymethyl)-4-(4-methyl-5-(4-(piperazin-1-yl)phenyl)pyridin-3-yl)benzamide]
- IC50 (ALK5): > 5 µM
- Fold Selectivity (ALK5/ALK2) (ALK2/ACVR1): >7
- Cell-based Fold Selectivity (ALK2): >1
- IC50 (DLA ALK5): > 5 µM

Compound: COc1c(C(N)=O)csc1-c1cncc(-c2ccc(N3CCNCC3)cc2)c1C
- IC50 (ALK5): > 5 µM
- IC50 (DLA ALK5): > 5 µM
- IC50 (NanoBRET ALK2): > 5 µM
- IC50 (ALK2 (WT)): > 1 µM

Compound: COc1cc(-c2cncc(-c3ccc(N4CCNCC4)cc3)c2C)cc(Cl)c1C(N)=O [Compound 20e, 2-Chloro-6-methoxy-4-(4-methyl-5-(4-(piperazin-1-yl)phenyl)pyridin-3-yl)benzamide]
- IC50 (ALK2 (G328V)): < 0.002 µM
- Cell-based Fold Selectivity (ALK2): >54
- IC50 (DLA ALK5): > 5 µM

Compound: COc1cc(-c2cncc(-c3ccc(N4C[C@@H](C)N(C)[C@@H](C)C4)cc3)c2C)cc(OC)c1C(N)=O [Compound 26f, 2,6-Dimethoxy-4-(4-methyl-5-(4-((3R,5S)-3,4,5-trimethylpiperazin-1-yl)phenyl)pyridin-3-yl)benzamide]
- remaining at 1 h, 1 μM ([1]; human, microsomes): 55.7%
- remaining at 1 h, 1 μM [2, 7]: 57.5%
- Papp A→B (in vitro): 0.7 ×10⁻⁶ cm/s
- Papp B→A (in vitro): 12.6 ×10⁻⁶ cm/s
- IC50 (NanoBRET ALK2): 0.021 µM

Compound: COc1c(-c2cncc(-c3ccc(N4CCNCC4)cc3)c2C)csc1C(N)=O [Compound 7b, 3-Methoxy-4-(4-methyl-5-(4-(piperazin-1-yl)phenyl)pyridin-3-yl)thiophene-2-carboxamide]
- IC50 (ALK5): > 5 µM
- Fold Selectivity (ALK5/ALK2) (ALK2/ACVR1): >7
- fold decrease in inhibitory activity against ALK2 (ALK2/ACVR1): greater than 40 fold
- Cell-based Fold Selectivity (ALK2): >1
- IC50 (DLA ALK5): > 5 µM

Compound: COc1cc(-c2cncc(-c3ccc(N4CCN(C(C)C)CC4)cc3)c2C)cc(OC)c1C(N)=O [Compound 26e, 4-(5-(4-(4-Isopropylpiperazin-1-yl)phenyl)-4-methylpyridin-3-yl)-2,6-dimethoxybenzamide]
- remaining at 1 h, 1 μM ([1]; pooled liver microsomes): 98%
- remaining at 1 h, 1 μM [2, 6]: 99.5%
- Fold Selectivity (ALK5/ALK2) (ALK2/ACVR1): 13
- Papp A→B at 120 min, 5 μM ([3]; Caco-2, pH 7.4): 0.9 ×10⁻⁶ cm/s
- Papp B→A at 120 min, 5 μM ([3]; Caco-2, pH 7.4): 14.4 ×10⁻⁶ cm/s
- efflux ratio at 120 min, 5 μM ([3]; Caco-2, pH 7.4, Efflux ratio, Caco-2, Papp (B-to-A)/Papp (A-to-B)): > 10

Compound: COc1cc(C(N)=O)cc(-c2cncc(-c3ccc(N4CCNCC4)cc3)c2C)c1 [Compound 14b, 3-Methoxy-5-(4-methyl-5-(4-(piperazin-1-yl)phenyl)pyridin-3-yl)benzamide]
- IC50 (ALK5): > 5 µM
- Fold Selectivity (ALK5/ALK2) (ALK2/ACVR1): >49
- Cell-based Fold Selectivity (ALK2): >8
- IC50 (DLA ALK5): > 5 µM

Compound: COc1cc(-c2cncc(-c3ccc(N4CCN(C)CC4)cc3)c2C)cc(OC)c1C(N)=O [Compound 26d, 2,6-Dimethoxy-4-(4-methyl-5-(4-(4-methylpiperazin-1-yl)phenyl)pyridin-3-yl)benzamide]
- IC50 (ALK2 (R258G)): < 0.002 µM
- remaining at 1 h, 1 μM ([1]; pooled liver microsomes): 81.4%
- remaining at 1 h, 1 μM [2, 6]: 85.2%
- IC50 (ALK2 (G328V)): < 0.002 µM
- Papp A→B at 120 min, 5 μM ([3]; Caco-2, pH 7.4): 0.7 ×10⁻⁶ cm/s
- Papp B→A at 120 min, 5 μM ([3]; Caco-2, pH 7.4): 13.9 ×10⁻⁶ cm/s
- efflux ratio at 120 min, 5 μM ([3]; Caco-2, pH 7.4): > 10
- IC50 (ALK2 (WT)): < 0.003 µM

Compound: COc1cc(-c2cncc(-c3ccc(N4CCNCC4)cc3)c2C)sc1C(N)=O [Compound 7a, 3-Methoxy-5-(4-methyl-5-(4-(piperazin-1-yl)phenyl)pyridin-3-yl)thiophene-2-carboxamide]
- IC50 (ALK5): > 5 µM
- Fold Selectivity (ALK5/ALK2) (ALK2/ACVR1): >6
- fold decrease in inhibitory activity against ALK2 (ALK2/ACVR1): greater than 40 fold
- Cell-based Fold Selectivity (ALK2): >1
- IC50 (DLA ALK5): > 5 µM

Compound: CNC(=O)c1ccc(-c2cncc(-c3ccc(N4CCNCC4)cc3)c2C)cc1OC
- IC50 (ALK5): > 5 µM
- IC50 (DLA ALK5): > 5 µM
- IC50 (NanoBRET ALK2): > 5 µM
- IC50 (ALK2 (WT)): > 1 µM

Compound: COc1cc(-c2cncc(-c3ccc(N4CCNCC4)cc3)c2C)ccc1C(=O)N(C)C
- IC50 (ALK5): > 5 µM
- IC50 (DLA ALK5): > 5 µM
- IC50 (NanoBRET ALK2): > 5 µM
- IC50 (ALK2 (WT)): > 1 µM

Compound: COc1ccc(-c2cncc(-c3ccc(N4CCNCC4)cc3)c2C)cc1C(N)=O [Compound 14a, 2-Methoxy-5-(4-methyl-5-(4-(piperazin-1-yl)phenyl)pyridin-3-yl)benzamide]
- IC50 (ALK5): > 5 µM
- Cell-based Fold Selectivity (ALK2): >7
- IC50 (DLA ALK5): > 5 µM
- IC50 (ALK2 (WT)): > 1 µM

Compound: COc1cc(-c2cncc(-c3ccc(N4CCNCC4)cc3)c2C)cc(F)c1C(N)=O [Compound 8b, 2-Fluoro-6-methoxy-4-(4-methyl-5-(4-(piperazin-1-yl)phenyl)pyridin-3-yl)benzamide]
- remaining at 1 h, 1 μM ([1]; human, microsomes): 105%
- remaining at 1 h, 1 μM [2, 7]: 98.4%
- Fold Selectivity (ALK5/ALK2) (ALK2/ACVR1): 80
- Papp_AB (Caco-2 cells [4]; Caco-2, apical to basolateral): 0.3 10^-6 cm/s
- Papp_BA (Caco-2 cells [4]; Caco-2, basolateral to apical): 10.7 10^-6 cm/s
- half-life at 24 h (in vivo): 1.31 h

Compound: COc1cc(-c2cncc(-c3ccc(N4CCNCC4)cc3)c2C)ccc1C(N)=O [Compound M4K2149]
- efflux ratio (Caco-2 cells [5]): 8.1
- IC50 (hERG): >50 µM and >30 µM
- IC50 (hERG potassium channel): > 50 µM

Compound: Cc1c(-c2ccc(C(N)=O)cc2)cncc1-c1ccc(N2CCNCC2)cc1 [Compound 20b, 4-(4-Methyl-5-(4-(piperazin-1-yl)phenyl)pyridin-3-yl)benzamide]
- IC50 (ALK5): > 5 µM
- Fold Selectivity (ALK5/ALK2) (ALK2/ACVR1): >10
- fold decrease in inhibitory activity against ALK2 (ALK2/ACVR1): 28 fold
- Cell-based Fold Selectivity (ALK2): >1
- IC50 (DLA ALK5): > 5 µM

Compound: Cc1c(-c2ccc(N3CCNCC3)cc2)cncc1-c1ccc2c(c1)CNC2=O [Compound 20a, 5-(4-Methyl-5-(4-(piperazin-1-yl)phenyl)pyridin-3-yl)isoindolin-1-one]
- IC50 (ALK5): > 5 µM
- Fold Selectivity (ALK5/ALK2) (ALK2/ACVR1): >7
